Results as given in patent publication EP0338372A2, “Solubilized pro-drugs” (AMERICAN CYANAMID COMPANY, priority 1988, dated 1989).
Read-outs that look alike come from different tables or passages of the source.

What was measured:
[1] = tested on: lymphocytic leukemia P388; test: Lymphocytic leukemia P388 test; type: in vivo, BDF1 mice
melanotic melanoma B16 = test: Melanotic Melanoma B16 test; type: in vivo, BDF1 mice
L1210 leukemia cells = test: Lymphocytic Leukemia L1210 test; type: in vivo, BDF1 mice
solubility = conditions: 0.1 M phosphate buffer, pH 7.5
[2] = pH 7.5
[3] = Dose 12.5 mg/kg intraperitoneally on days 1, 5 and 9
[4] = Dose 25 mg/kg intraperitoneally on days 1, 5 and 9
[5] = Dose 50 mg/kg intraperitoneally on days 1, 5 and 9
[6] = Dose 100 mg/kg intraperitoneally on days 1, 5 and 9
[7] = Dose 200 mg/kg intraperitoneally on days 1, 5 and 9
[8] = Dose 0.78 mg/kg intraperitoneally on days 1, 5 and 9
[9] = Dose 1.56 mg/kg intraperitoneally on days 1, 5 and 9
[10] = Dose 3.12 mg/kg intraperitoneally on days 1, 5 and 9
[11] = Dose 6.25 mg/kg intraperitoneally on days 1, 5 and 9
[12] = Dose 0.19 mg/kg intraperitoneally on days 1, 5 and 9
[13] = Dose 0.39 mg/kg intraperitoneally on days 1, 5 and 9
[14] = Dose 3.25 mg/kg intraperitoneally on days 1, 5 and 9

CCCC(=O)N1CCN=C1NN=Cc1c2ccccc2c(C=NNC2=NCCN2C(=O)CCC)c2ccccc12 [2,2-(9,10-Anthracenediylbis(methylidyne-1-hydrazinyl-2-ylidene)]bis4,5-dihydro-1-(1-oxobutyl)-1H-imidazole]]
Median Survival [1, 3]: 12.5 days | T/C x 100 % [1, 3]: 125% | Median Survival [1, 4]: 12.5 days | T/C x 100 % [1, 4]: 125% | Median Survival [1, 5]: 14 days | T/C x 100 % [1, 5]: 140% | Median Survival [1, 6]: 14.5 days | T/C x 100 % [1, 6]: 145% | Median Survival [1, 7]: 15.5 days | T/C x 100 % [1, 7]: 155% | Median Survival (melanotic melanoma B16; [4]): 26 days | T/C x 100 % (melanotic melanoma B16; [4]): 118% | Median Survival (melanotic melanoma B16; [5]): 24.5 days | T/C x 100 % (melanotic melanoma B16; [5]): 111% | Median Survival (melanotic melanoma B16; [6]): 28.5 days | T/C x 100 % (melanotic melanoma B16; [6]): 130% | Median Survival (melanotic melanoma B16; [7]): 27.5 days | T/C x 100 % (melanotic melanoma B16; [7]): 125%

O=C(c1ccccc1)N1CCN=C1N(N=Cc1c2ccccc2c(C=NN(C(=O)c2ccccc2)C2=NCCN2C(=O)c2ccccc2)c2ccccc12)C(=O)c1ccccc1 [2,2-(9,14-Anthracenediyldimethylidyne)bis[1-(1-benzoyl-4,5-dihydro-1H-imidazol-2-yl)hydrazide] of Benzoic Acid]
Median Survival [1, 8]: 15.5 days | T/C x 100 % [1, 8]: 155% | Median Survival [1, 9]: 17.5 days | T/C x 100 % [1, 9]: 175% | Median Survival [1, 10]: 17 days | T/C x 100 % [1, 10]: 170% | Median Survival [1, 11]: 18 days | T/C x 100 % [1, 11]: 180% | Median Survival [1, 3]: 19 days | T/C x 100 % [1, 3]: 190% | Median Survival [1, 4]: 19.5 days | T/C x 100 % [1, 4]: 195% | Median Survival [1, 5]: 20 days | T/C x 100 % [1, 5]: 200% | Median Survival [1, 6]: 23 days | T/C x 100 % [1, 6]: 320% | Median Survival [1, 7]: 32 days | T/C x 100 % [1, 7]: 320% | Median Survival (melanotic melanoma B16; [3]): 29.5 days | T/C x 100 % (melanotic melanoma B16; [3]): 134% | Median Survival (melanotic melanoma B16; [4]): 32 days | T/C x 100 % (melanotic melanoma B16; [4]): 145% | Median Survival (melanotic melanoma B16; [5]): 40 days | T/C x 100 % (melanotic melanoma B16; [5]): 182% | Median Survival (melanotic melanoma B16; [6]): 57.5 days | T/C x 100 % (melanotic melanoma B16; [6]): 261% | Median Survival (melanotic melanoma B16; [7]): 50 days | T/C x 100 % (melanotic melanoma B16; [7]): 227%

O=C(O)CCC(=O)N1CCN=C1NN=Cc1c2ccccc2c(C=NNC2=NCCN2C(=O)CCC(=O)O)c2ccccc12 [2,2[9,10-Anthracenediylbis(methylidene-1-hydrazinyl-2-ylidene)]bis[4,5-dihydro-gamma-oxo-1H-imidazole-1-butanoic Acid]]
Median Survival [1, 12]: 15 days | T/C x 100 % [1, 12]: 150% | Median Survival [1, 13]: 15.5 days | T/C x 100 % [1, 13]: 155% | Median Survival [1, 8]: 17 days | T/C x 100 % [1, 8]: 170% | Median Survival [1, 9]: 17 days | T/C x 100 % [1, 9]: 170% | Median Survival [1, 10]: 19 days | T/C x 100 % [1, 10]: 190% | Median Survival [1, 11]: 19 days | T/C x 100 % [1, 11]: 190% | Median Survival [1, 3]: 23 days | T/C x 100 % [1, 3]: 230% | Median Survival (melanotic melanoma B16; [14]): >60 days | T/C x 100 % (melanotic melanoma B16; [14]): >273% | Median Survival (melanotic melanoma B16; [11]): >60 days | T/C x 100 % (melanotic melanoma B16; [11]): >273% | Median Survival (melanotic melanoma B16; [3]): 55.5 days | T/C x 100 % (melanotic melanoma B16; [3]): 252% | Median Survival (L1210 leukemia cells; [13]): 11.5 days | T/C x 100 % (L1210 leukemia cells; [13]): 135% | Median Survival (L1210 leukemia cells; [8]): 11.2 days | T/C x 100 % (L1210 leukemia cells; [8]): 132% | Median Survival (L1210 leukemia cells; [9]): 12 days | T/C x 100 % (L1210 leukemia cells; [9]): 141% | Median Survival (L1210 leukemia cells; [10]): 12.3 days | T/C x 100 % (L1210 leukemia cells; [10]): 145% | Median Survival (L1210 leukemia cells; [11]): 12.2 days | T/C x 100 % (L1210 leukemia cells; [11]): 144% | Median Survival (L1210 leukemia cells; [3]): 13.2 days | T/C x 100 % (L1210 leukemia cells; [3]): 155%

CC(=O)N1CCN=C1N(N=Cc1c2ccccc2c(C=NN(C(C)=O)C2=NCCN2)c2ccccc12)C(C)=O [2-[[10-[[Acetyl(1-acetyl-4,5-dihydro-1H-imidazol-2-yl)hydrazono]methyl]-9-anthracenyl]methylene]-1-(4,5-dihydro-1H-imidazol-2-yl)hydrazide of Acetic Acid]
Median Survival [1, 11]: 12.5 days | T/C x 100 % [1, 11]: 125% | Median Survival [1, 3]: 13 days | T/C x 100 % [1, 3]: 130% | Median Survival [1, 4]: 15.5 days | T/C x 100 % [1, 4]: 155% | Median Survival [1, 5]: 16.5 days | T/C x 100 % [1, 5]: 165% | Median Survival [1, 6]: 17 days | T/C x 100 % [1, 6]: 170% | Median Survival [1, 7]: 17.5 days | T/C x 100 % [1, 7]: 175% | Median Survival (melanotic melanoma B16; [3]): 28 days | T/C x 100 % (melanotic melanoma B16; [3]): 127% | Median Survival (melanotic melanoma B16; [4]): 30 days | T/C x 100 % (melanotic melanoma B16; [4]): 136% | Median Survival (melanotic melanoma B16; [5]): 29.5 days | T/C x 100 % (melanotic melanoma B16; [5]): 134% | Median Survival (melanotic melanoma B16; [6]): 37 days | T/C x 100 % (melanotic melanoma B16; [6]): 168% | Median Survival (melanotic melanoma B16; [7]): 40 days | T/C x 100 % (melanotic melanoma B16; [7]): 182%

O=C(O)c1cn(C2CC2)c2cc(N3CCN(P(=O)(O)O)CC3)c(F)cc2c1=O [Example 47, t-Cyclopropyl-6-fluoro-1,4-dihydro-4-oxo-7-(4-phosphono-1-piperazinyl)-3-quinolinecarboxylic Acid]
solubility (solubility): soluble

CCOP(=O)(OCC)N1CCN(c2cc3c(cc2F)c(=O)c(C(=O)OCCOC)cn3C2CC2)CC1 [Example 49, 1-Cycfopropyl-7-[4-(diethoxyphosphinyl)-1-piperazinyl]-6-fluoro-1,4-dihydro-4-oxo-3-quinolinecarboxylic Acid, 2-Methoxyethyl Ester]
solubility [2]: easily soluble

[2-[[[10-[((4,5-Dihydro-1H-imidazol-2-yl)ethylhydrazono]methyl]-9-anthracenyl]methylene] hydrazino]-4,5-dihydro-1H-imidazol-1-yl]phosphonic Acid, Hydroiodide
Median Survival ([1]; mouse, in vivo, ip, 0.4 mg/kg): 18 days | T/C x 100 % ([1]; mouse, in vivo, ip, 0.4 mg/kg): 164% | Median Survival ([1]; mouse, in vivo, ip, 0.8 mg/kg): 21.5 days | T/C x 100 % ([1]; mouse, in vivo, ip, 0.8 mg/kg): 195% | Median Survival ([1]; mouse, in vivo, ip, 1.6 mg/kg): 18 days | T/C x 100 % ([1]; mouse, in vivo, ip, 1.6 mg/kg): 164% | Median Survival ([1]; mouse, in vivo, ip, 3.2 mg/kg): 22.5 days | T/C x 100 % ([1]; mouse, in vivo, ip, 3.2 mg/kg): 205% | Median Survival ([1]; mouse, in vivo, ip, 6.3 mg/kg): 24 days | T/C x 100 % ([1]; mouse, in vivo, ip, 6.3 mg/kg): 218% | Median Survival ([1]; mouse, in vivo, ip, 12.5 mg/kg): 25 days | T/C x 100 % ([1]; mouse, in vivo, ip, 12.5 mg/kg): 227% | Median Survival ([1]; mouse, in vivo, ip, 25 mg/kg): 25 days | T/C x 100 % ([1]; mouse, in vivo, ip, 25 mg/kg): 227% | Median Survival ([1]; mouse, in vivo, ip, 50 mg/kg): 25.5 days | T/C x 100 % ([1]; mouse, in vivo, ip, 50 mg/kg): 232%

[9,10-Anthracenedlylbis(methylidyne-1-hydrazinyl-2-ylidene (4,5-dihydro-1H-imidazol-2,1-diyl)]]-phosphonic Acid Hydroiodide
Median Survival ([1]; mouse, in vivo, ip, 0.4 mg/kg): 21 days | T/C x 100 % ([1]; mouse, in vivo, ip, 0.4 mg/kg): 191% | Median Survival ([1]; mouse, in vivo, ip, 0.8 mg/kg): 19 days | T/C x 100 % ([1]; mouse, in vivo, ip, 0.8 mg/kg): 173% | Median Survival ([1]; mouse, in vivo, ip, 1.6 mg/kg): 24.5 days | T/C x 100 % ([1]; mouse, in vivo, ip, 1.6 mg/kg): 223% | Median Survival ([1]; mouse, in vivo, ip, 3.2 mg/kg): 24 days | T/C x 100 % ([1]; mouse, in vivo, ip, 3.2 mg/kg): 218% | Median Survival ([1]; mouse, in vivo, ip, 6.3 mg/kg): 22 days | T/C x 100 % ([1]; mouse, in vivo, ip, 6.3 mg/kg): 200% | Median Survival ([1]; mouse, in vivo, ip, 12.5 mg/kg): 53.5 days | T/C x 100 % ([1]; mouse, in vivo, ip, 12.5 mg/kg): 486% | Median Survival ([1]; mouse, in vivo, ip, 25 mg/kg): >60 days | T/C x 100 % ([1]; mouse, in vivo, ip, 25 mg/kg): >545%
